According to ChEMBL document CHEMBL6182832, “Design and synthesis of coumarin-based amphoteric antimicrobials with biofilm interference and immunoregulation effects” (RSC Med Chem, 2025):
Converted amounts (≈) assume the structure as drawn. The source made the active and inactive calls. No cut-off for these calls is given here.

Experiments:
[1] = test system: Staphylococcus aureus; test: Antibacterial activity against clinically isolated Staphylococcus aureus ATCC29213 assessed as inhibition of bacterial growth measured after 16 to 24 hrs by broth microdilution method; assay type: functional; conditions: time 16-24 hrs, read-out: MIC100
[2] = test system: Staphylococcus aureus; test: Antibacterial activity against clinically isolated methicillin-resistant Staphylococcus aureus assessed as inhibition of bacterial growth measured after 16 to 24 hrs by broth microdilution method; assay type: functional; conditions: time 16-24 hrs, read-out: MIC100
[3] = test system: Escherichia coli; test: Antibacterial activity against clinically isolated Escherichia coli ATCC25922 assessed as inhibition of bacterial growth measured after 16 to 24 hrs by broth microdilution method; assay type: functional; conditions: time 16-24 hrs, read-out: MIC100
[4] = test system: Escherichia coli; test: Antibacterial activity against clinically isolated Escherichia coli DE17 assessed as inhibition of bacterial growth measured after 16 to 24 hrs by broth microdilution method; assay type: functional; conditions: time 16-24 hrs, read-out: MIC100
[5] = test system: Listeria monocytogenes; test: Antibacterial activity against clinically isolated Listeria monocytogenes CICC21662 assessed as inhibition of bacterial growth measured after 16 to 24 hrs by broth microdilution method; assay type: functional; conditions: time 16-24 hrs, read-out: MIC100
[6] = test system: Escherichia coli; test: Anti-biofilm activity against clinically isolated Escherichia coli DE17 assessed inhibition of biofilm formation at 0.5 to 128 ug/ml measured after 12 to 16 hrs incubation by crystal violet staining based analysis; assay type: functional, organism-based; conditions: dose 0.5-128 µg/ml, time 12-16 hrs
[7] = test system: Staphylococcus aureus; test: Anti-biofilm activity against clinically isolated Staphylococcus aureus ATCC29213 assessed inhibition of biofilm formation at 4 ug/ml measured after 12 to 16 hrs incubation by crystal violet staining based analysis; assay type: functional; conditions: time 12-16 hrs
[8] = Hemolytic activity in rabbit erythrocytes assessed as hemolysis at >8 ug/ml; assay type: toxicity, cell-based, Oryctolagus cuniculus; conditions: erythrocyte, dose > 8 µg/ml
[9] = test system: Bacillus subtilis; test: Antibacterial activity against clinically isolated Bacillus subtilis ATCC6633 assessed as inhibition of bacterial growth measured after 16 to 24 hrs by broth microdilution method; assay type: functional; conditions: time 16-24 hrs, read-out: MIC100
[10] = test system: Staphylococcus aureus; test: Anti-biofilm activity against clinically isolated Staphylococcus aureus ATCC29213 assessed inhibition of biofilm formation at 0.5 to 128 ug/ml measured after 12 to 16 hrs incubation by crystal violet staining based analysis; assay type: functional, organism-based; conditions: dose 0.5-128 µg/ml, time 12-16 hrs
[11] = test system: Staphylococcus aureus; test: Anti-biofilm activity against clinically isolated Staphylococcus aureus ATCC29213 assessed inhibition of biofilm formation at 2 ug/ml measured after 12 to 16 hrs incubation by crystal violet staining based analysis; assay type: functional; conditions: time 12-16 hrs
[12] = test system: Bacillus cereus; test: Antibacterial activity against clinically isolated Bacillus cereus CMCC63303 assessed as inhibition of bacterial growth measured after 16 to 24 hrs by broth microdilution method; assay type: functional; conditions: time 16-24 hrs, read-out: MIC100
[13] = test system: Escherichia coli; test: Anti-biofilm activity against clinically isolated Escherichia coli DE17 assessed inhibition of biofilm formation at 16 ug/ml measured after 12 to 16 hrs incubation by crystal violet staining based analysis; assay type: functional; conditions: time 12-16 hrs
[14] = test system: Escherichia coli; test: Anti-biofilm activity against clinically isolated Escherichia coli DE17 assessed inhibition of biofilm formation at 8 ug/ml measured after 12 to 16 hrs incubation by crystal violet staining based analysis; assay type: functional; conditions: time 12-16 hrs
[15] = test system: Staphylococcus aureus; test: Biofilm eradication activity against Staphylococcus aureus ATCC29213 assessed biofilm scavenging at 4 ug/ml measured after 12 to 16 hrs incubation by crystal violet staining based analysis; assay type: functional, organism-based; conditions: dose 4.0 µg/ml, time 12-16 hrs
[16] = test system: Enterococcus faecalis; test: Antibacterial activity against clinically isolated Enterococcus faecalis ATCC29212 assessed as inhibition of bacterial growth measured after 16 to 24 hrs by broth microdilution method; assay type: functional; conditions: time 16-24 hrs, read-out: MIC100
[17] = test system: Escherichia coli; test: Biofilm eradication activity against Escherichia coli DE17 assessed biofilm scavenging at 16 ug/ml measured after 12 to 16 hrs incubation by crystal violet staining based analysis; assay type: functional, organism-based; conditions: dose 16.0 µg/ml, time 12-16 hrs
[18] = test system: RAW264.7; test: Anti-inflammatory activity against mouse RAW264.7 cells assessed as inhibition LPS-stimulated NO production 0.5 to 4 ug/ml measured after 24 hrs by NO assay kit; assay type: functional, cell-based; conditions: dose 0.5-4 µg/ml
[19] = Hemolytic activity in rabbit erythrocytes assessed as hemolysis at 0.5 to 125 ug/ml; assay type: toxicity, cell-based, Oryctolagus cuniculus; conditions: erythrocyte, dose 0.5-125 µg/ml

## CCCN(CCC)CCCCCCCCOc1cc(=O)oc2ccccc12
[1]
  MIC: 16 µg/mL (≈ 42.8 µM)
[2]
  MIC: 32 µg/mL (≈ 85.7 µM)
[3]
  MIC: > 256 µg/mL
[4]
  MIC: > 256 µg/mL

## CN(C)CCCCOc1ccc2ccc(=O)oc2c1
[1]
  MIC: > 256 µg/mL
[2]
  MIC: > 256 µg/mL
[3]
  MIC: > 256 µg/mL
[4]
  MIC: > 256 µg/mL

## CN(C)CCCCCCCCOc1cc(=O)oc2ccccc12
[1]
  MIC: 32 µg/mL (≈ 101 µM)
[2]
  MIC: 64 µg/mL (≈ 202 µM)
[3]
  MIC: > 256 µg/mL
[4]
  MIC: > 256 µg/mL

## CCN(CC)CCCCCCCCOc1cc(=O)oc2ccccc12
[1]
  MIC: 64 µg/mL (≈ 185 µM)
[2]
  MIC: 4 µg/mL (≈ 11.6 µM)
[3]
  MIC: > 256 µg/mL
[4]
  MIC: > 256 µg/mL

## CN(C)CCCCCCCCCCCCOc1ccc2ccc(=O)oc2c1
[1]
  MIC: 16 µg/mL (≈ 42.8 µM)
[2]
  MIC: 4 µg/mL (≈ 10.7 µM)
[3]
  MIC: > 256 µg/mL
[4]
  MIC: > 256 µg/mL

## CCCCN(CCCC)CCCCCCCCCCCCOc1ccc2ccc(=O)oc2c1
[1]
  MIC: 1 µg/mL (≈ 2.18 µM)
[2]
  MIC: 4 µg/mL (≈ 8.74 µM)
[3]
  MIC: > 256 µg/mL
[4]
  MIC: > 256 µg/mL

## CCCCN(CCCC)CCCCCCCCOc1cc(=O)oc2ccccc12
[1]
  MIC: 16 µg/mL (≈ 39.8 µM)
[2]
  MIC: 32 µg/mL (≈ 79.7 µM)
[3]
  MIC: > 256 µg/mL
[4]
  MIC: > 256 µg/mL

## CCCN(CCC)CCCCCCCCCCCCOc1cc(=O)oc2ccccc12
[1]
  MIC: 4 µg/mL (≈ 9.31 µM)
[2]
  MIC: 2 µg/mL (≈ 4.66 µM)
[3]
  MIC: > 256 µg/mL
[4]
  MIC: > 256 µg/mL

## CN(C)CCCCCCCCOc1ccc2ccc(=O)oc2c1
[1]
  MIC: > 128 µg/mL
[2]
  MIC: 64 µg/mL (≈ 202 µM)
[3]
  MIC: > 256 µg/mL
[4]
  MIC: > 256 µg/mL

## CN(C)CCCCCCCCCCCCOc1cc(=O)oc2ccccc12
[1]
  MIC: 4 µg/mL (≈ 10.7 µM)
[2]
  MIC: 4 µg/mL (≈ 10.7 µM)
[3]
  MIC: > 256 µg/mL
[4]
  MIC: > 256 µg/mL

## CCN(CC)CCCCCCCCOc1ccc2ccc(=O)oc2c1
[1]
  MIC: 64 µg/mL (≈ 185 µM)
[2]
  MIC: 64 µg/mL (≈ 185 µM)
[3]
  MIC: > 256 µg/mL
[4]
  MIC: > 256 µg/mL

## CCN(CC)CCCCCCCCCCCCOc1cc(=O)oc2ccccc12
[5]
  MIC: 1 µg/mL (≈ 2.49 µM)
[1]
  MIC: 2 µg/mL (≈ 4.98 µM)
[6]
  Activity: Dose-dependent-effect
[7]
  inhibition at 4 µg/mL: 100%
[8]
  Activity: Toxic
[9]
  MIC: 1 µg/mL (≈ 2.49 µM)
[2]
  MIC: 2 µg/mL (≈ 4.98 µM)
[10]
  Activity: Dose-dependent-effect
[11]
  inhibition at 2 µg/mL: 100%
[3]
  MIC: > 256 µg/mL
[12]
  MIC: 4 µg/mL (≈ 9.96 µM)
[13]
  inhibition at 16 µg/mL: 100%
[4]
  MIC: > 256 µg/mL
[14]
  inhibition at 8 µg/mL: 100%
[15]
  Activity: Active
[16]
  MIC: 4 µg/mL (≈ 9.96 µM)
[17]
  Activity: Active
[18]
  Activity: Active

## CCCCN(CCCC)CCCCOc1ccc2ccc(=O)oc2c1
[1]
  MIC: > 256 µg/mL
[2]
  MIC: > 256 µg/mL
[3]
  MIC: > 256 µg/mL
[4]
  MIC: > 256 µg/mL

## CCCN(CCC)CCCCCCCCOc1ccc2ccc(=O)oc2c1
[1]
  MIC: 32 µg/mL (≈ 85.7 µM)
[2]
  MIC: 32 µg/mL (≈ 85.7 µM)
[3]
  MIC: > 256 µg/mL
[4]
  MIC: > 256 µg/mL

## CCN(CC)CCCCOc1cc(=O)oc2ccccc12
[1]
  MIC: > 256 µg/mL
[2]
  MIC: > 256 µg/mL
[3]
  MIC: > 256 µg/mL
[4]
  MIC: > 256 µg/mL

## CCN(CC)CCCCOc1ccc2ccc(=O)oc2c1
[1]
  MIC: > 256 µg/mL
[2]
  MIC: > 256 µg/mL
[3]
  MIC: > 256 µg/mL
[4]
  MIC: > 256 µg/mL

## CCCN(CCC)CCCCOc1cc(=O)oc2ccccc12
[1]
  MIC: > 256 µg/mL
[2]
  MIC: > 256 µg/mL
[3]
  MIC: > 256 µg/mL
[4]
  MIC: > 256 µg/mL

## CCCN(CCC)CCCCCCCCCCCCOc1ccc2ccc(=O)oc2c1
[1]
  MIC: 8 µg/mL (≈ 18.6 µM)
[2]
  MIC: 4 µg/mL (≈ 9.31 µM)
[3]
  MIC: > 256 µg/mL
[4]
  MIC: > 256 µg/mL

## CCCCN(CCCC)CCCCOc1cc(=O)oc2ccccc12
[1]
  MIC: 256 µg/mL (≈ 741 µM)
[2]
  MIC: > 256 µg/mL
[3]
  MIC: > 256 µg/mL
[4]
  MIC: > 256 µg/mL

## O=c1ccc2ccc(O)cc2o1 [UMBELLIFERONE]
[5]
  MIC: > 256 µg/mL
[1]
  MIC: > 256 µg/mL
[6]
  Activity: inactive
[9]
  MIC: > 256 µg/mL
[2]
  MIC: > 256 µg/mL
[10]
  Activity: inactive
[3]
  MIC: > 256 µg/mL
[12]
  MIC: > 256 µg/mL
[19]
  Activity: Non-toxic
[4]
  MIC: > 256 µg/mL
[16]
  MIC: > 256 µg/mL
[18]
  Activity: inactive

## CN[C@H](CC(C)C)C(=O)N[C@H]1C(=O)N[C@@H](CC(N)=O)C(=O)N[C@H]2C(=O)N[C@H]3C(=O)N[C@H](C(=O)N[C@H](C(=O)O)c4cc(O)cc(O)c4-c4cc3ccc4O)[C@H](O)c3ccc(c(Cl)c3)Oc3cc2cc(c3O[C@@H]2O[C@H](CO)[C@@H](O)[C@H](O)[C@H]2O[C@H]2C[C@](C)(N)[C@H](O)[C@H](C)O2)Oc2ccc(cc2Cl)[C@H]1O [VANCOMYCIN]
[5]
  MIC: 0.5 µg/mL (≈ 0.345 µM)
[9]
  MIC: 0.5 µg/mL (≈ 0.345 µM)
[3]
  MIC: > 256 µg/mL
[4]
  MIC: > 256 µg/mL
[16]
  MIC: 2 µg/mL (≈ 1.38 µM)

## CCN1CCN(c2cc3c(cc2F)c(=O)c(C(=O)O)cn3C2CC2)CC1 [ENROFLOXACIN]
[1]
  MIC: 0.062 µg/mL (≈ 0.173 µM)
[2]
  MIC: 32 µg/mL (≈ 89 µM)
[3]
  MIC: 0.031 µg/mL (≈ 0.0863 µM)
[4]
  MIC: 0.031 µg/mL (≈ 0.0863 µM)

## CCCCN(CCCC)CCCCCCCCCCCCOc1cc(=O)oc2ccccc12
[5]
  MIC: 1 µg/mL (≈ 2.18 µM)
[1]
  MIC: 4 µg/mL (≈ 8.74 µM)
[9]
  MIC: 1 µg/mL (≈ 2.18 µM)
[2]
  MIC: 4 µg/mL (≈ 8.74 µM)
[3]
  MIC: > 256 µg/mL
[12]
  MIC: 8 µg/mL (≈ 17.5 µM)
[4]
  MIC: > 256 µg/mL
[16]
  MIC: 4 µg/mL (≈ 8.74 µM)

## CCCCN(CCCC)CCCCCCCCOc1ccc2ccc(=O)oc2c1
[1]
  MIC: 16 µg/mL (≈ 39.8 µM)
[2]
  MIC: 32 µg/mL (≈ 79.7 µM)
[3]
  MIC: > 256 µg/mL
[4]
  MIC: > 256 µg/mL

## O=c1cc(O)c2ccccc2o1 [4-HYDROXYCOUMARINS]
[5]
  MIC: > 256 µg/mL
[1]
  MIC: 256 µg/mL (≈ 1580 µM)
[9]
  MIC: > 256 µg/mL
[2]
  MIC: > 256 µg/mL
[3]
  MIC: > 256 µg/mL
[12]
  MIC: > 256 µg/mL
[4]
  MIC: > 256 µg/mL
[16]
  MIC: > 256 µg/mL

## CN(C)CCCCOc1cc(=O)oc2ccccc12
[1]
  MIC: > 256 µg/mL
[2]
  MIC: > 256 µg/mL
[3]
  MIC: > 256 µg/mL
[4]
  MIC: > 256 µg/mL

## CCCN(CCC)CCCCOc1ccc2ccc(=O)oc2c1
[1]
  MIC: > 256 µg/mL
[2]
  MIC: > 256 µg/mL
[3]
  MIC: > 256 µg/mL
[4]
  MIC: > 256 µg/mL
